Laboratory results: patent publication US20040082757A1, “Echinocandin derivatives, pharmaceutical compositions containing same and use thereof as drugs” (priority 2001, published 2004)
Numbered stars: 1 amine (or outer) side, 2 acyl side, 3 side chain; on linkers, the order of the positions; unused ones are H or OH. Bridge positions count the residues as written; N and C are the ends. Square brackets hold non-standard residues; d marks the D form. Peptide text beside a SMILES is read from it. * marks the point of attachment. ξ: configuration not given here. ξhTyr(βξ-OH,3-OSO3H) = NC(C(=O)O)C(O)Cc1ccc(O)c(OS(=O)(=O)O)c1; ξOrn(4,5-diOH) = O=C(C(CC(O)C(O)N[*:3])N[*:1])[*:2]; X3 = CCCCCOc1ccc(-c2cc(-c3ccc(C(=O)*)cc3)no2)cc1; ξOrn(4ξ-OH) = O=C(C(CC(O)CN[*:3])N[*:1])[*:2]; ξPro(3ξ-OH,4ξ-Me) = CC1CNC(C(=O)O)C1O; X2 = NC(=O)CC(O)C(N[*:1])C(=O)[*:2]; X1 = O=C(C1C(O)C(O)CN1[*:1])[*:2]; ξT = CC(O)C(N)C(=O)O

Tests used:
Candida albicans FP 633 = assay: Antimicrobial activity test: antifungal susceptibility by microdilution method (NCCLS M27-A), MIC; type: cell-based; conditions: FP633, RPMI 1640, pH 7.0, 35° C., lowest concentration with no visible growth
Method: The antifungal susceptibility assays were performed by the microdilution method according to M27-A guidelines recommended by the National Committee for Clinical Laboratory Standards (NCCLS) to determine the MICs of the compounds. RPMI 1640 medium with L-glutamine, without sodium bicarbonate and buffered with 165 mM morpholinepropanesulfonic acid buffer (pH 7.0) was used as a test medium. Inoculum suspension of 10^6 CFU/ml were prepared by a hemocytometric procedure and diluted to obtain an inoculum size of approximately 0.5×10^3 to 2.5×10^3 CFU/ml. Microplates were incubated at 35° C., and readings were taken when good growth in the growth control. The MICs were defined as the lowest concentrations at which no visible growth was observed.

| melting point | MIC (Candida albicans FP 633) [µg/mL] | Structure (SMILES) |
| --- | --- | --- |
| 250 to 260 °C (dec.) | – | CC(O)C1NC(=O)C(N)CC(O)CNC(=O)C2C(O)C(C)CN2C(=O)C(C(O)CC(N)=O)NC(=O)C(C(O)Cc2ccc(O)c(OS(=O)(=O)O)c2)NC(=O)C2CCCN2C1=O (stereo not drawn) [Object Compound (1)] (H-[ξOrn(4ξ-OH)]TP[ξhTyr(βξ-OH,3-OSO3H)][X2][ξPro(3ξ-OH,4ξ-Me)]; lactam 1-C; configuration not given here) |
| 215 to 220 °C (dec.) | – | CC(O)C1NC(=O)C(N)CC(O)C(O)NC(=O)C2C(O)C(C)CN2C(=O)C(C(O)CC(N)=O)NC(=O)C(C(O)Cc2ccc(O)c(OS(=O)(=O)O)c2)NC(=O)C2C(O)C(O)CN2C1=O (stereo not drawn) [Object Compound (2)] (H-[ξOrn(4,5-diOH)][ξT][X1][ξhTyr(βξ-OH,3-OSO3H)][X2][ξPro(3ξ-OH,4ξ-Me)]; lactam 1-C) |
| 255 to 260 °C (dec.) | – | CC1CN2C(=O)C(C(O)CC(N)=O)NC(=O)C(C(O)Cc3ccc(O)c(OS(=O)(=O)O)c3)NC(=O)C3CCCN3C(=O)C(CO)NC(=O)C(N)CC(O)CNC(=O)C2C1O (stereo not drawn) [Object Compound (3)] (H-[ξOrn(4ξ-OH)]SP[ξhTyr(βξ-OH,3-OSO3H)][X2][ξPro(3ξ-OH,4ξ-Me)]; lactam 1-C; configuration not given here) |
| – | < 0.1 | CCCCCOc1ccc(-c2cc(-c3ccc(C(=O)NC4CC(O)CNC(=O)C5C(O)C(C)CN5C(=O)C(C(O)CC(N)=O)NC(=O)C(C(O)Cc5ccc(O)c(OS(=O)(=O)[O-])c5)NC(=O)C5CCCN5C(=O)C(C(C)O)NC4=O)cc3)no2)cc1.[Na+] (stereo not drawn) [Object Compound (8)] (X3-[ξOrn(4ξ-OH)]TP[ξhTyr(βξ-OH,3-OSO3H)][X2][ξPro(3ξ-OH,4ξ-Me)]; lactam 1-C; configuration not given here) |
| – | < 0.02 | CCCCCOc1ccc(-c2cc(-c3ccc(C(=O)NC4CC(O)C(O)NC(=O)C5C(O)C(C)CN5C(=O)C(C(O)CC(N)=O)NC(=O)C(C(O)Cc5ccc(O)c(OS(=O)(=O)[O-])c5)NC(=O)C5C(O)C(O)CN5C(=O)C(C(C)O)NC4=O)cc3)no2)cc1.[Na+] (stereo not drawn) [Object Compound (9)] |
| – | < 0.1 | CCCCCOc1ccc(-c2cc(-c3ccc(C(=O)NC4CC(O)CNC(=O)C5C(O)C(C)CN5C(=O)C(C(O)CC(N)=O)NC(=O)C(C(O)Cc5ccc(O)c(OS(=O)(=O)[O-])c5)NC(=O)C5CCCN5C(=O)C(CO)NC4=O)cc3)no2)cc1.[Na+] (stereo not drawn) [Object Compound (10)] (X3-[ξOrn(4ξ-OH)]SP[ξhTyr(βξ-OH,3-OSO3H)][X2][ξPro(3ξ-OH,4ξ-Me)]; lactam 1-C; configuration not given here) |
